Experimental data reported in PMC5575539 (Journal of Clinical Pharmacology, 2017).
Like-named read-outs stand apart in the source and are kept apart here.

How the values were obtained:
[1] = Population pharmacokinetic analysis of lenvatinib; type: in vivo, human; settings: for Additional (ng/mL) (TAD ≤ 2 hours) / Proportional (%CV) (Clinical pharmacology studies) / Proportional (%CV) (Patient studies) / Proportional (%CV) (TAD ≤ 2 hours): residual error
[2] = test system: subjects with HCC Child‐Pugh class A; settings: 12 mg QD; independent radiologic review per modified RECIST; cited from earlier work
[3] = type: in vivo, human; settings: for AUC: human, plasma, oral, 12 mg, Median AUC based on the starting dose, steady state, model‐derived
[4] = 4‐week cycles, continuous schedule; subjects with Child‐Pugh class A; cited from earlier work
[5] = type: in vivo, human; settings: ROC curve; TEAEs during cycle 1; subjects with HCC
[6] = final model, bootstrap median (2.5‐97.5 percentile)
[7] = final model, population mean (%RSE)
[8] = base model, population mean (%RSE)

SMILES: COc1cc2nccc(Oc3ccc(NC(=O)NC4CC4)c(Cl)c3)c2cc1C(N)=O [lenvatinib]
- Ka ([1]; base model, population mean (%RSE), absorption rate): 1.02 (6.06) L/h
- D1 ([1]; base model, population mean (%RSE), duration of 0‐order absorption): 1.05 (5.45) hours
- F1 (capsule vs tablet formulation) ([1]; base model, population mean (%RSE), relative bioavailability): 0.832 (0.982)
- Effect of the HCC population (HCC vs other cancer type) on CL/F ([1]; covariate analysis, model including body weight and alkaline phosphatase effects): not a statistically significant effect
- CL/F interindividual variability explained by body weight ([1]; final PK model): 10.5%
- CL/F interindividual variability explained by other covariates ([1]; final PK model): 14.3%
- Decrease of CL/F with CYP3A4 inhibitors ([1]; final PK model): 7.8%
- Decrease of CL/F with alkaline phosphatase above the upper limit of normal ([1]; final PK model): 14.8%
- Higher CL/F in healthy subjects than in patients with cancer ([1]; final PK model): 19%
- Increase of CL/F with concomitant administration of CYP3A4 inducers ([1]; final PK model): 30%
- Decrease of CL/F with alkaline phosphatase above the upper limit of normal ([1]; final PK model, listed as Lenvatinib): 15%
- ALP (> ULN vs ≤ ULN) on CL/F [ΘALP] [1, 6]: 0.855 (0.807‐0.910)
- Body weight on V1/F, V2/F, and V3/F [ΘWGT2] [1, 6]: 1.08 (0.876‐1.28)
- D1 [1, 6]: 1.06 (0.987‐1.14) hours
- F1 (capsule vs tablet formulation) [1, 6]: 0.867 (0.815‐0.908)
- Ka [1, 6]: 1.04 (0.933‐1.13) L/h
- Population (healthy vs subjects) on CL/F [ΘTM] [1, 6]: 1.19 (1.11‐1.27)
- ALP (> ULN vs ≤ ULN) on CL/F [ΘALP] [1, 7]: 0.852 (1.24)
- Population (healthy vs subjects) on CL/F [ΘTM] [1, 7]: 1.19 (3.26)
- Ka ([1]; final model, population mean (%RSE), absorption rate): 1.04 (6.80) L/h
- D1 ([1]; final model, population mean (%RSE), duration of 0‐order absorption): 1.06 (5.77) hours
- Body weight on V1/F, V2/F, and V3/F [ΘWGT2] ([1]; final model, population mean (%RSE), power exponent on WGT/75): 1.08 (5.42)
- F1 (capsule vs tablet formulation) ([1]; final model, population mean (%RSE), relative bioavailability): 0.867 (1.00)
- Differences in CL/F between HCC Child‐Pugh class A and B groups ([1]; population PK analysis): No differences in CL/F
- Additional (ng/mL) (TAD ≤ 2 hours) [1, 8]: 7.29 (16.2) ng/mL
- Proportional (%CV) (Clinical pharmacology studies) [1, 8]: 18.4 (0.888) %CV
- Proportional (%CV) (Patient studies) [1, 8]: 30.7 (2.03) %CV
- Proportional (%CV) (TAD ≤ 2 hours) [1, 8]: 44.9 (3.75) %CV
- Additional (ng/mL) (TAD ≤ 2 hours) [1, 6]: 7.50 (4.62‐9.85) ng/mL
- Proportional (%CV) (Clinical pharmacology studies) [1, 6]: 17.1 (15.5‐18.8) %CV
- Proportional (%CV) (Patient studies) [1, 6]: 30.1 (27.7‐32.2) %CV
- Proportional (%CV) (TAD ≤ 2 hours) [1, 6]: 44.8 (40.7‐48.8) %CV
- Additional (ng/mL) (TAD ≤ 2 hours) [1, 7]: 7.35 (16.3) ng/mL
- Proportional (%CV) (Clinical pharmacology studies) [1, 7]: 17.3 (0.883) %CV
- Proportional (%CV) (Patient studies) [1, 7]: 30.2 (2.00) %CV
- Proportional (%CV) (TAD ≤ 2 hours) [1, 7]: 44.8 (3.87) %CV
- Median time to progression [2]: 7.4 months
- Objective response rate [2]: 37%
- Subjects who experienced TEAEs leading to dose reduction or discontinuation during cycle 1 ([3]; 21 of 45 subjects in the exposure–response population, 12 mg QD, HCC): 46.7%
- Relationship between lenvatinib exposure and response (time to progression) ([3]; Kaplan‐Meier, tertiles of AUC based on starting dose of 12 mg, independent reviewer assessments): No relationship
- AUC ([3]; subjects with early dose withdrawal or reduction): 2950 ng·h/mL
- AUC ([3]; subjects without early dose modification): 2050 ng·h/mL
- Maximum tolerated dose [4]: 12 mg QD
- Best cutoff value of lenvatinib AUC to predict high‐risk group for early drug withdrawal or dose reduction [5]: 2430 ng·h/mL
